# Data reported in patent publication US20030166601A1, “Novel colloid synthetic vectors for gene therapy” (priority 1999, published 2003).
# How the values were obtained:
# [1] = system: mouse; assay: In vivo transfection with cationic lipid complexes containing fusogenic or steric surfactants; settings: DOTAP:Chol core complexes; FIG. 7
# Procedure: All lipids of a formulation including surfactants were dissolved in an organic solvent such as cyclohexane and mixed together at the desired ratio and then lyophilized to dryness. For example, 45 mg DOTAP and 25 mg cholesterol, or 10 mg GC-030 and 4.74 mg cholesterol were used for DOTAP:Chol and GC-030:Chol, respectively. Double distilled water was added to the lipid cake to give a final concentration of 10 mg/ml of cationic lipid (cholesterol is a neutral lipid that is not counted for calculation of lipid dispersion concentration or later for charge ratio with DNA) and allowed to hydrate at 70 C for 1 hr. The lipid dispersion was extruded through 100 nm pore carbonate membranes (Avanti Polar Lipids Inc) or vortexed for 1 min at room temperature.
# Forty microgram of pCILuc was dissolved in 100 μl of 10% glucose and mixed by hand with different amount of lipids dispersion dissolved in 100 μl distilled H2O. The final concentration of Glucose is 5%. The mixing was performed by added the DNA solution to the lipid solution. The charge ratio of lipids to DNA in this mixture was indicated in the text. 200 μl of DNA/lipid complex solutions was injected into mouse tail vein. Each group had 3-5 mice. Five hours later, mice were sacrificed. […] Luciferase activity was determined by using luciferase assay system kit from Promega. […]
# [2] = system: BL-6 cells; type: cell-based; settings: polylysine core complexes; FIG. 8
# [3] = system: HUVEC cells; assay: Transfection of HUVEC cells with K14RGD/Lipofectin complexes, luciferase; type: cell-based; settings: added to lipofectin core complexes; FIG. 25
# Procedure: 20000 HUVEC cells were seeded to each well of a 96 well plate and cultured for 12 hr before transfection. 0 or 2 ug of K14RGD peptide was mixed with indicated amount of Lipofectin from 0.1 ul to 4 ul in 50 ul of serum free medium for 15 min. The mixture was added to 50 ul serum free medium containing 0.5 ug pCIluc2 DNA. The poly-lipoplex was incubated for 30 min before added to the cells. The transfection solution was removed after 3 hr and serum-containing medium was added to the cells.
# At 24 hr, luciferase activity was measured with Promega luciferase assay kit according to the recommended procedure.
compound,measurement,setting,value
CCCCCCCC/C=C\CCCCCCCC(=O)OCCOCC(OCCO)C1OCC(OCCO)C1OCCO (stereo not drawn) [Tween 80],"gene transfer in vivo, effect of additive",[1],improved
GLF GAI EGF IEN GWE GWI DGW YGC KCK KKK KKK KKK KKK K [Example K14-Fuso],"expression, effect of fusogenic peptide",[2],increased expression
KKK KKK KKK KKK KKS CRG DC [Example K14RGD],"expression, effect of peptide ligand",[3],increased expression
